Assay results taken from patent publication US6914045B2, “Glycopeptide antibiotics” (Wyeth Holdings Corporation, priority 2001, dated 2005).
Converted amounts (≈) assume the structure as drawn.

Assays:
Assay in all cases: in vitro antibacterial evaluation, MIC by broth dilution
Format in all cases: cell-based
[1] = test system: Escherichia coli; details: 18 hours at 35° C.
[2] = test system: Enterococcus sp.; details: broth dilution, 18 hours at 35° C.
Protocol: (§1) Methods for in vitro Antibacterial Evaluation (Table 1)
(§2) The minimum inhibitory concentration (MIC), the lowest concentration of the antibiotic which inhibits growth of the test organism, is determined by the broth dilution method using Muller-Hinton II […] (Baltimore Biological Laboratories) following the recommendations of the National Committee for Clinical Laboratory Standards [Methods for dilution antimicrobial susceptibility tests for bacteria that grow aerobically, approved standard M7-A2, National Committee for Clinical Laboratory Standards, Villanova, Pa.].
(§3) An inoculum level of 5×10^5 CFU/mL, and a range of antibiotic concentrations (64-0.06 μg/mL) is used. […] The test organisms include a spectrum of Gram-positive bacteria comprised of Staphylococcus sp., Streptococcus sp. and Enterococcus sp. These organisms include recent clinical isolates that are resistant to methicillin, penicillin and/or vancomycin.

[3] = test system: Streptococcus sp.; details: broth dilution, 18 hours at 35° C.
Protocol: as §1, §2, §3

[4] = test system: Staphylococcus sp.
Protocol: as §1, §2, §3

[5] = broth dilution, 18 hours at 35° C.
[6] = strain ATCC 29213; broth dilution, 18 hours at 35° C.
[7] = strain GC 1131; broth dilution, 18 hours at 35° C.
[8] = strain GC 3051; broth dilution, 18 hours at 35° C.
[9] = strain GC 3053; broth dilution, 18 hours at 35° C.
[10] = strain GC 4541; broth dilution, 18 hours at 35° C.
[11] = strain GC 4542; broth dilution, 18 hours at 35° C.
[12] = strain GC 4544; broth dilution, 18 hours at 35° C.
[13] = strain GC 4545; broth dilution, 18 hours at 35° C.

## CC(c1ccccc1)C1NC(=O)CNC(=O)C(CO)NC(=O)C(C(O)C2CN(Cc3ccc(C(F)(F)F)cc3)C(=N)N2C2OC(CO)C(O)C(O)C2O)NC(=O)C(C(O)C2CNC(=N)N2)NC(=O)C(Cc2ccc(OC3OC(CO)C(OC4OC5COC6(OC5C(O)C4O)C4CC5CC(C4)CC6C5)C(O)C3O)cc2)NC1=O (stereo not shown) [Example 226]
[1]
  MIC Escherichia coli (ATCC 25922): >128 µg/mL
  MIC Escherichia coli (GC 4559): 128 µg/mL (≈ 80.7 µM)
  MIC Escherichia coli (GC 4560): 4 µg/mL (≈ 2.52 µM)
[2]
  MIC Enterococcus avium (GC 4558): 8 µg/mL (≈ 5.05 µM)
  MIC Enterococcus faecalis (ATCC 29212): 32 µg/mL (≈ 20.2 µM)
  MIC Enterococcus faecalis (GC 2242): 16 µg/mL (≈ 10.1 µM)
  MIC Enterococcus faecalis (GC 2691): 32 µg/mL (≈ 20.2 µM)
  MIC Enterococcus faecalis (GC 3059): 32 µg/mL (≈ 20.2 µM)
  MIC Enterococcus faecalis (GC 4552): 32 µg/mL (≈ 20.2 µM)
  MIC Enterococcus faecalis (GC 4553): 16 µg/mL (≈ 10.1 µM)
  MIC Enterococcus faecalis (GC 4554): 32 µg/mL (≈ 20.2 µM)
  MIC Enterococcus faecalis (GC 6189): 32 µg/mL (≈ 20.2 µM)
  MIC Enterococcus faecium (GC 2243): 16 µg/mL (≈ 10.1 µM)
  MIC Enterococcus faecium (GC 4556): 32 µg/mL (≈ 20.2 µM)
  MIC Enterococcus faecium (GC 4557): 2 µg/mL (≈ 1.26 µM)
[2]; inoculum 5×10^5 CFU/mL, strain ATCC 29212
  MIC Enterococcus faecalis (ATCC 29212): 32 µg/mL (≈ 20.2 µM)
[2]; inoculum 5×10^5 CFU/mL, strain GC 2242
  MIC Enterococcus faecalis (GC 2242): 16 µg/mL (≈ 10.1 µM)
[2]; inoculum 5×10^5 CFU/mL, strain GC 2243
  MIC Enterococcus faecium (GC 2243): 16 µg/mL (≈ 10.1 µM)
[2]; inoculum 5×10^5 CFU/mL, strain GC 2691
  MIC Enterococcus faecalis (GC 2691): 32 µg/mL (≈ 20.2 µM)
[2]; inoculum 5×10^5 CFU/mL, strain GC 3059
  MIC Enterococcus faecalis (GC 3059): 32 µg/mL (≈ 20.2 µM)
[2]; inoculum 5×10^5 CFU/mL, strain GC 4552
  MIC Enterococcus faecalis (GC 4552): 32 µg/mL (≈ 20.2 µM)
[2]; inoculum 5×10^5 CFU/mL, strain GC 4553
  MIC Enterococcus faecalis (GC 4553): 16 µg/mL (≈ 10.1 µM)
[2]; inoculum 5×10^5 CFU/mL, strain GC 4554
  MIC Enterococcus faecalis (GC 4554): 32 µg/mL (≈ 20.2 µM)
[2]; inoculum 5×10^5 CFU/mL, strain GC 4556
  MIC Enterococcus faecium (GC 4556): 32 µg/mL (≈ 20.2 µM)
[2]; inoculum 5×10^5 CFU/mL, strain GC 4557
  MIC Enterococcus faecium (GC 4557): 2 µg/mL (≈ 1.26 µM)
[2]; inoculum 5×10^5 CFU/mL, strain GC 4558
  MIC Enterococcus avium (GC 4558): 8 µg/mL (≈ 5.05 µM)
[2]; inoculum 5×10^5 CFU/mL, strain GC 6189
  MIC Enterococcus faecalis (GC 6189): 32 µg/mL (≈ 20.2 µM)
[3]
  MIC Streptococcus agalactiae (GC 4564): 4 µg/mL (≈ 2.52 µM)
  MIC Streptococcus pneumoniae (ATCC 6301): 4 µg/mL (≈ 2.52 µM)
  MIC Streptococcus pneumoniae (GC 1894): 0.5 µg/mL (≈ 0.315 µM)
  MIC Streptococcus pneumoniae (GC 4565): 4 µg/mL (≈ 2.52 µM)
  MIC Streptococcus pyogenes (GC 4563): 2 µg/mL (≈ 1.26 µM)
[3]; inoculum 5×10^5 CFU/mL, strain ATCC 6301
  MIC Streptococcus pneumoniae (ATCC 6301): 4 µg/mL (≈ 2.52 µM)
[3]; inoculum 5×10^5 CFU/mL, strain GC 1894
  MIC Streptococcus pneumoniae (GC 1894): 0.5 µg/mL (≈ 0.315 µM)
[3]; inoculum 5×10^5 CFU/mL, strain GC 4563
  MIC Streptococcus pyogenes (GC 4563): 2 µg/mL (≈ 1.26 µM)
[3]; inoculum 5×10^5 CFU/mL, strain GC 4564
  MIC Streptococcus agalactiae (GC 4564): 4 µg/mL (≈ 2.52 µM)
[3]; inoculum 5×10^5 CFU/mL, strain GC 4565
  MIC Streptococcus pneumoniae (GC 4565): 4 µg/mL (≈ 2.52 µM)
[4]; [5]
  MIC Coagulase Negative Staphylococcus (GC 4547): 8 µg/mL (≈ 5.05 µM)
  MIC Coagulase Negative Staphylococcus (GC 4548): 8 µg/mL (≈ 5.05 µM)
  MIC Coagulase Negative Staphylococcus (GC 4549): 16 µg/mL (≈ 10.1 µM)
  MIC Coagulase Negative Staphylococcus (GC 4551): 8 µg/mL (≈ 5.05 µM)
  MIC Coagulase Negative Staphylococcus (GC 6257): 2 µg/mL (≈ 1.26 µM)
  MIC Staphylococcus aureus-SMITH (GC 4543): 8 µg/mL (≈ 5.05 µM)
  MIC Staphylococcus haemolyticus (GC 4546): 8 µg/mL (≈ 5.05 µM)
[4]; broth dilution, 18 hours at 35° C.; strain GC 4543
  MIC Staphylococcus aureus-SMITH (GC 4543): 8 µg/mL (≈ 5.05 µM)
[4]; broth dilution, 18 hours at 35° C.; strain GC 4546
  MIC Staphylococcus haemolyticus (GC 4546): 8 µg/mL (≈ 5.05 µM)
[4]; broth dilution, 18 hours at 35° C.; strain GC 4547
  MIC Coagulase Negative Staphylococcus (GC 4547): 8 µg/mL (≈ 5.05 µM)
[4]; broth dilution, 18 hours at 35° C.; strain GC 4548
  MIC Coagulase Negative Staphylococcus (GC 4548): 8 µg/mL (≈ 5.05 µM)
[4]; broth dilution, 18 hours at 35° C.; strain GC 4549
  MIC Coagulase Negative Staphylococcus (GC 4549): 16 µg/mL (≈ 10.1 µM)
[4]; broth dilution, 18 hours at 35° C.; strain GC 4551
  MIC Coagulase Negative Staphylococcus (GC 4551): 8 µg/mL (≈ 5.05 µM)
[4]; broth dilution, 18 hours at 35° C.; strain GC 6257
  MIC Coagulase Negative Staphylococcus (GC 6257): 2 µg/mL (≈ 1.26 µM)
[4]; [6]
  MIC Staphylococcus aureus (ATCC 29213): 16 µg/mL (≈ 10.1 µM)
[4]; [7]
  MIC Staphylococcus aureus (GC 1131): 16 µg/mL (≈ 10.1 µM)
[4]; [8]
  MIC Staphylococcus aureus (GC 3051): 16 µg/mL (≈ 10.1 µM)
[4]; [9]
  MIC Staphylococcus aureus (GC 3053): 16 µg/mL (≈ 10.1 µM)
[4]; [10]
  MIC Staphylococcus aureus (GC 4541): 8 µg/mL (≈ 5.05 µM)
[4]; [11]
  MIC Staphylococcus aureus (GC 4542): 16 µg/mL (≈ 10.1 µM)
[4]; [12]
  MIC Staphylococcus aureus (GC 4544): 16 µg/mL (≈ 10.1 µM)
[4]; [13]
  MIC Staphylococcus aureus (GC 4545): 16 µg/mL (≈ 10.1 µM)

## CC(c1ccccc1)C1NC(=O)CNC(=O)C(CO)NC(=O)C(C(O)C2CNC(=N)N2C2OC(CO)C(O)C(O)C2O)NC(=O)C(C(O)C2CNC(=N)N2)NC(=O)C(Cc2ccc3oc(-c4ccoc4)nc3c2)NC1=O (stereo not drawn) [Example 38, Cyclo[3-[2-(3-furyl)-1,3-benzoxazol-5-yl]alanyl-3-(2-iminoimidazolidin-4-yl)seryl-3-(3-hexopyranosyl-2-iminoimidazolidin-4-yl)serylserylglycyl-β-methylphenylalanyl]]
[1]; strain ATCC 25922, broth dilution
  MIC Escherichia coli (ATCC 25922): 64 µg/mL (≈ 60.3 µM)
[1]; strain GC 4559, broth dilution
  MIC Escherichia coli (GC 4559): 64 µg/mL (≈ 60.3 µM)
[1]; strain GC 4560, broth dilution
  MIC Escherichia coli (GC 4560): 32 µg/mL (≈ 30.1 µM)
[2]; strain ATCC 29212
  MIC Enterococcus faecalis (ATCC 29212): 128 µg/mL (≈ 121 µM)
[2]; strain GC 2242
  MIC Enterococcus faecalis (GC 2242): 128 µg/mL (≈ 121 µM)
[2]; strain GC 2243
  MIC Enterococcus faecium (GC 2243): 128 µg/mL (≈ 121 µM)
[2]; strain GC 2691
  MIC Enterococcus faecalis (GC 2691): 128 µg/mL (≈ 121 µM)
[2]; strain GC 3059
  MIC Enterococcus faecalis (GC 3059): >128 µg/mL
[2]; strain GC 4552
  MIC Enterococcus faecalis (GC 4552): 128 µg/mL (≈ 121 µM)
[2]; strain GC 4553
  MIC Enterococcus faecalis (GC 4553): 64 µg/mL (≈ 60.3 µM)
[2]; strain GC 4554
  MIC Enterococcus faecalis (GC 4554): 128 µg/mL (≈ 121 µM)
[2]; strain GC 4556
  MIC Enterococcus faecium (GC 4556): 128 µg/mL (≈ 121 µM)
[2]; strain GC 4557
  MIC Enterococcus faecium (GC 4557): 32 µg/mL (≈ 30.1 µM)
[2]; strain GC 4558
  MIC Enterococcus avium (GC 4558): 64 µg/mL (≈ 60.3 µM)
[2]; strain GC 6189
  MIC Enterococcus faecalis (GC 6189): 128 µg/mL (≈ 121 µM)
[3]; strain ATCC 6301
  MIC Streptococcus pneumoniae (ATCC 6301): 32 µg/mL (≈ 30.1 µM)
[3]; strain GC 1894
  MIC Streptococcus pneumoniae (GC 1894): 32 µg/mL (≈ 30.1 µM)
[3]; strain GC 4563
  MIC Streptococcus pyogenes (GC 4563): 32 µg/mL (≈ 30.1 µM)
[3]; strain GC 4564
  MIC Streptococcus agalactiae (GC 4564): 32 µg/mL (≈ 30.1 µM)
[3]; strain GC 4565
  MIC Streptococcus pneumoniae (GC 4565): 64 µg/mL (≈ 60.3 µM)
[4]; [6]
  MIC Staphylococcus aureus (ATCC 29213): 64 µg/mL (≈ 60.3 µM)
[4]; [7]
  MIC Staphylococcus aureus (GC 1131): 32 µg/mL (≈ 30.1 µM)
[4]; [8]
  MIC Staphylococcus aureus (GC 3051): 64 µg/mL (≈ 60.3 µM)
[4]; [9]
  MIC Staphylococcus aureus (GC 3053): 64 µg/mL (≈ 60.3 µM)
[4]; [10]
  MIC Staphylococcus aureus (GC 4541): 64 µg/mL (≈ 60.3 µM)
[4]; [11]
  MIC Staphylococcus aureus (GC 4542): 64 µg/mL (≈ 60.3 µM)
[4]; strain GC 4543; broth dilution, 18 hours at 35° C.
  MIC Staphylococcus aureus-SMITH (GC 4543): 64 µg/mL (≈ 60.3 µM)
[4]; [12]
  MIC Staphylococcus aureus (GC 4544): 64 µg/mL (≈ 60.3 µM)
[4]; [13]
  MIC Staphylococcus aureus (GC 4545): 32 µg/mL (≈ 30.1 µM)
[4]; strain GC 4546; broth dilution, 18 hours at 35° C.
  MIC Staphylococcus haemolyticus (GC 4546): 16 µg/mL (≈ 15.1 µM)
[4]; strain GC 4547; broth dilution, 18 hours at 35° C.
  MIC Coagulase Negative Staphylococcus (GC 4547): 32 µg/mL (≈ 30.1 µM)
[4]; strain GC 4548; broth dilution, 18 hours at 35° C.
  MIC Coagulase Negative Staphylococcus (GC 4548): 32 µg/mL (≈ 30.1 µM)
[4]; strain GC 4549; broth dilution, 18 hours at 35° C.
  MIC Coagulase Negative Staphylococcus (GC 4549): 64 µg/mL (≈ 60.3 µM)
[4]; strain GC 4551; broth dilution, 18 hours at 35° C.
  MIC Coagulase Negative Staphylococcus (GC 4551): 64 µg/mL (≈ 60.3 µM)
[4]; strain GC 6257; broth dilution, 18 hours at 35° C.
  MIC Coagulase Negative Staphylococcus (GC 6257): 16 µg/mL (≈ 15.1 µM)
